Holding throughout (experiment): inhibition of tumour cell growth, NCI panel, 48 h
Assay [1] has as its system MOLT-4 leukemia.
Assay [2] relates to HCC-2998 colon.
In assay [3] the test system is NCI-H522 lung.
For assay [4], the system named is M14 melanoma.
Assay [5] concerns OVCAR-4 ovarian.
Assay [6] has as its system OVCAR-3 ovarian.
In assay [7] the test system is SF-295 CNS.
Assay [8] relates to U251 CNS.
The test system of assay [9] is HCT-15 colon.
Assay [10] has as its system SN12C renal.

The values that follow come from PubChem BioAssay (NCI).

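1) Cells in 96-well plates. 2) Compound, 48 h, 5 concentrations. 3) Linear interpolation between surrounding doses. 4) Unreached endpoint = highest concentration. The concentration for 50% growth inhibition is given as GI50. TGI is the concentration that stops growth completely.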 Where only a bound is given, the exact number is not on record here.

As for `COc1cc(/C=C2\CC3C4CC=C5C[C@@H](OC(C)=O)CC[C@]5(C)C4CC[C@]3(C)C2=O)ccc1OCCN1CCCCC1` (stereo not given in full), the GI50 in assay [1] was 1.16 µM; in [2], 2.7 µM; in assay [3], 7.28 µM; in [4], 2.09 µM; in [5], 15.1 µM; in [6] it was 2.05 µM. For the same compound, the GI50 in [7] was 2.41 µM; in assay [8], 2.41 µM; in assay [9] it was 1.29 µM. Also, the TGI is 3.23 µM in assay [1]; 6.59 µM in [2]; 25.7 µM in [3]; 3.79 µM in assay [4]; 49 µM in assay [5]; 5.29 µM in assay [6]. Further, the TGI was determined as 5.08 µM in assay [7], 8.26 µM in assay [8] and 3.25 µM in [9].
For `Oc1c(Cl)cc(Cl)c(Cl)c1CNCCNCc1c(O)c(Cl)cc(Cl)c1Cl`, the GI50 is 0.561 µM in assay [1]; 2.02 µM in assay [10]; 2.69 µM in assay [2]; 1.28 µM in assay [3]; 1.22 µM in [4]; 0.41 µM in assay [5]. Also, the GI50 is 0.502 µM in [6], 1.26 µM in assay [7], 0.556 µM in [8] and 0.282 µM in assay [9]. In addition, the TGI in assay [1] is over 50 µM; in assay [10], 17.9 µM; in [2] it was over 50 µM; in assay [3], 8.24 µM; in [4] it was 26 µM; in assay [5], 7.87 µM. Moreover, the TGI came to 7.08 µM in [6], 20.3 µM in assay [7], 6.61 µM in assay [8] and 11.6 µM in assay [9].
In the case of `Cc1c(C)c2ccc3oc4ccccc4c3c2oc1=O`, the TGI in assay [1], in assay [10], in assay [2], in assay [3], in assay [4] and in [5] was over 100 µM in each case. In addition, the TGI in assay [6], in [7], in assay [8] and in assay [9] was over 100 µM throughout.
Consider `CCc1ccc(Oc2c(-c3ccc(OCc4ccc(Cl)cc4)cc3O)n[nH]c2C(F)(F)F)cc1`, for which the GI50 is 2.46 µM in assay [1]; 1.72 µM in assay [10]; 1.93 µM in assay [2]; 1.72 µM in assay [3]; 1.88 µM in [4]; 1.62 µM in assay [5]. For the same compound, the GI50 in [6] was 1.78 µM; in assay [7], 2.04 µM; in assay [8], 1.79 µM; in assay [9] it was 1.6 µM. Further, the TGI in assay [1] was found to be 5.64 µM; in assay [10], 3.35 µM; in assay [2] it was 4 µM; in assay [3], 4.33 µM; in assay [4] it was 3.71 µM; in assay [5], 3.31 µM. Further, the TGI in [6] worked out at 3.28 µM; in assay [7], 4.74 µM; in [8], 3.22 µM; in assay [9], 3.21 µM.
On to `Cc1nn(CNc2ccccc2C(F)(F)F)c(=S)n1/N=C/c1cccc2cccnc12`, for which the GI50 in [1] is 41.6 µM; in [10], 19.9 µM; in [2] it was over 100 µM; in assay [3], over 100 µM; in [4], 57.9 µM; in assay [5] it was 44.3 µM. Moreover, the GI50 was over 100 µM in assay [6], over 100 µM in assay [7] and 24.3 µM in assay [9]. For the same compound, the TGI in [1] was over 100 µM; in [10], 72.7 µM; in [2], over 100 µM; in [3], over 100 µM; in assay [4] it was over 100 µM; in assay [5], over 100 µM. Further, the TGI in assay [6], in assay [7] and in assay [9] was over 100 µM throughout.
Take `C=CCC1(CN(C)C)CC/C(=C\c2ccc(OC)cc2)C1=O` (stereo not given): the TGI was over 100 µM in assay [1]; over 100 µM in assay [10]; over 100 µM in [2]; 81.9 µM in assay [3]; over 100 µM in [4]; over 100 µM in assay [5]. Besides, the TGI in assay [6], in [7], in assay [8] and in [9] was over 100 µM in each case.
On to `Fc1ccc(-c2c(-c3ccncc3)nc3n2CCS3)cc1`, for which the GI50 in [1], in [10], in [2], in [3], in assay [4] and in assay [5] was over 25 µM each time. The GI50 in assay [6], in assay [7], in assay [8] and in [9] was over 25 µM in each case. Besides, the TGI in [1], in [10], in assay [2], in [3], in assay [4] and in assay [5] was over 25 µM in each case. The TGI in [6], in [7], in assay [8] and in assay [9] was over 25 µM throughout.
With `COC1CCC(OS(C)(=O)=O)C(CO)O1` (stereo not given), the TGI in assay [1], in assay [10], in assay [2], in assay [3], in assay [4] and in assay [6] was over 100 µM each time. The TGI in assay [7], in [8] and in assay [9] was over 100 µM each time.
